Measured values reported in US11634396B2 (priority 2021, dated 2023).
Read-outs that look alike come from different tables or passages of the source.

How the values were obtained:
human mOR = human mOR (Homo sapiens (Human), UniProt P35372); experiment: cell-based
human dOR = human dOR (Homo sapiens (Human), UniProt P41143); experiment: cell-based
[1] = dOR cAMP Agonist Assay EC50, CHO Tag-lite human dOR stable cell line, forskolin
[2] = CHO Tag-lite human mOR stable cell line, forskolin 4 μM and DAMGO at EC90, read-out: mOR cAMP Antagonist Assay IC50

Sequence of human dOR (P41143 whole entry): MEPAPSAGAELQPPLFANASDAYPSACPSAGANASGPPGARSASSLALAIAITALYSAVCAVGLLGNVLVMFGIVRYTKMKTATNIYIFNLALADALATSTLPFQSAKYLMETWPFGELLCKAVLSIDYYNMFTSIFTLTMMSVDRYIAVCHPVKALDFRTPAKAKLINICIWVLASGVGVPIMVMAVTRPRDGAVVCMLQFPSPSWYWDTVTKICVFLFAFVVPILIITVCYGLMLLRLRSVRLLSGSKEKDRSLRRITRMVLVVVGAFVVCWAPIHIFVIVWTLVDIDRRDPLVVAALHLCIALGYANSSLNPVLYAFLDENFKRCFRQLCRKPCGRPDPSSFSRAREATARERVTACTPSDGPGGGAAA
Sequence of human mOR (P35372 whole entry): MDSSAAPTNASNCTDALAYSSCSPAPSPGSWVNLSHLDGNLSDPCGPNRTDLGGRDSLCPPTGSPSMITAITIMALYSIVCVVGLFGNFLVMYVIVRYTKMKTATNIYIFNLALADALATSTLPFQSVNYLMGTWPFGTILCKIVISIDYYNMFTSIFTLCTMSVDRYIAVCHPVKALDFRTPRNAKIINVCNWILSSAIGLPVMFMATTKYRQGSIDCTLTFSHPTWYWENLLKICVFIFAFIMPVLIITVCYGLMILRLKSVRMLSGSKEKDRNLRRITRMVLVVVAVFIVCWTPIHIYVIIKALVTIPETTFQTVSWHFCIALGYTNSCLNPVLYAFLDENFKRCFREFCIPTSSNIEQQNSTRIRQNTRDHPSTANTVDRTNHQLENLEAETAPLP

| Structure (SMILES) | IC50 (human mOR) | EC50 (human dOR; [1]) | other results |
| --- | --- | --- | --- |
| C[C@@H](CC(=O)NC[C@H](Cc1ccc2[nH]ncc2c1)N(C)C)c1ccc(F)cc1 [Compound 218, (S)-N-((S)-2-(dimethylamino)-3-(1H-indazol-5-yl)propyl)-3-(4-fluorophenyl)butanamide] | < 300 nM | > 3000 nM | – |
| CNC(=O)c1cc(C)c(C[C@@H](CNC(=O)C[C@@H](c2ccccc2)C(C)(C)C)N(C)C)cc1F [Compound 146, 4-((S)-3-((R)-4,4-dimethyl-3-phenylpentanamido)-2-(dimethylamino)propyl)-2-fluoro-N,5-dimethylbenzamide] | < 300 nM | > 3000 nM | – |
| CNC(=O)c1ccc(C[C@@H](CNC(=O)C[C@H](c2ccccc2)C(C)C)N(C)C)cc1Cl [Compound 148, 2-chloro-4-((S)-2-(dimethylamino)-3-((S)-4-methyl-3-phenylpentanamido)propyl)-N-methylbenzamide] | 300 to 3000 nM | 300 to 3000 nM | – |
| CC(C)C[C@H](CC(=O)NC[C@H](Cc1ccc(-c2cn[nH]c2)cc1Cl)N(C)C)c1ccccc1 [Compound 326, (3R)-N-[(2S)-3-[2-chloro-4-(1H-pyrazol-4-yl)phenyl]-2-(dimethylamino)propyl]-5-methyl-3-phenylhexanamide] | – | – | IC50 (human mOR; read-out: mOR cAMP Antagonist Assay IC50): 300 to 3000 nM; EC50 (human dOR; read-out: dOR cAMP Agonist Assay EC50): > 3000 nM |
| CN(C)[C@H](CNC(=O)C[C@@H](c1ccccc1)C1CC1)Cc1ccc2c(c1)CC(=O)N2 [Compound 186, (R)-3-cyclopropyl-N-((S)-2-(dimethylamino)-3-(2-oxoindolin-5-yl)propyl)-3-phenylpropanamide] | < 300 nM | 300 to 3000 nM | – |
| CNC(=O)c1ccc(C[C@@H](CNC(=O)C[C@@H](c2ccccc2)C(C)C)N(C)C)cc1F [Compound 162, 4-((S)-2-(dimethylamino)-3-((R)-4-methyl-3-phenylpentanamido)propyl)-2-fluoro-N-methylbenzamide] | < 300 nM | 300 to 3000 nM | – |
| Cc1cc(C(N)=O)cc(C)c1C[C@@H](CNC(=O)C[C@H](c1ccccc1)C(C)(C)C)N(C)C [Compound 13, 4-[(2S)-3-[(3S)-4,4-dimethyl-3-phenylpentanamido]-2-(dimethylamino)propyl]-3,5-dimethylbenzamide] | < 300 nM | > 3000 nM | – |
| CN(C)[C@H](CNC(=O)CC(C)(C)c1ccccc1)Cc1ccc2[nH]ncc2c1 [Compound 221, (S)-N-(2-(dimethylamino)-3-(1H-indazol-5-yl)propyl)-3-methyl-3-phenylbutanamide] | < 300 nM | > 3000 nM | – |
| CN(C)[C@H](CNC(=O)C[C@H](c1ccccc1)C1CC1)Cc1ccc2[nH]c(=O)oc2c1 [Compound 177, (S)-3-cyclopropyl-N-((S)-2-(dimethylamino)-3-(2-oxo-2,3-dihydrobenzo[d]oxazol-6-yl)propyl)-3-phenylpropanamide] | < 300 nM | 300 to 3000 nM | – |
| CC(C)[C@H](CC(=O)NC[C@H](Cc1ccc(C(N)=O)cc1)N(C)C)c1ccccc1 [Compound 94, 4-[(2S)-2-(dimethylamino)-3-[(3S)-4-methyl-3-phenylpentanamido]propyl]benzamide] | < 300 nM | < 300 nM | – |
| CN(C)[C@H](CNC(=O)C[C@@H](c1ccccc1)C(C)(C)C)Cc1ccc(C(N)=O)cc1 [Compound 93, 4-[(2S)-3-[(3R)-4,4-dimethyl-3-phenylpentanamido]-2-(dimethylamino)propyl]benzamide] | < 300 nM | < 300 nM | – |
| CC(C)[C@@H](CC(=O)NC[C@H](Cc1ccc(C(N)=O)cc1)N(C)C)c1ccccc1 [Compound 92, 4-((S)-2-(dimethylamino)-3-((R)-4-methyl-3-phenylpentanamido)propyl)benzamide] | < 300 nM | < 300 nM | – |
| CC(C)C[C@@H](CC(=O)NC[C@H](Cc1ccc2c(c1)CC(=O)N2)N(C)C)c1ccccc1 [Compound 183, (S)-N-((S)-2-(dimethylamino)-3-(2-oxoindolin-5-yl)propyl)-5-methyl-3-phenylhexanamide] | < 300 nM | > 3000 nM | – |
| CN(C)[C@H](CNC(=O)C[C@H](c1ccccc1)C(C)(C)C)Cc1ccc(C(=O)NCC(F)(F)F)c(F)c1 [Compound 101, 4-((S)-3-((S)-4,4-dimethyl-3-phenylpentanamido)-2-(dimethylamino)propyl)-2-fluoro-N-(2,2,2-trifluoroethyl)benzamide] | – | 300 to 3000 nM | IC50 (human mOR; [2]): < 300 nM |
| CNC(=O)c1ccc(C[C@@H](CNC(=O)C[C@H](c2ccccc2)C(C)(C)C)N(C)C)cc1F [Compound 158, 4-((S)-3-((S)-4,4-dimethyl-3-phenylpentanamido)-2-(dimethylamino)propyl)-2-fluoro-N-methylbenzamide] | < 300 nM | > 3000 nM | – |
| Cc1ccc([C@@H](C)CC(=O)NC[C@H](Cc2ccc3[nH]ncc3c2)N(C)C)cc1 [Compound 217, (S)-N-((S)-2-(dimethylamino)-3-(1H-indazol-5-yl)propyl)-3-(p-tolyl)butanamide] | – | 300 to 3000 nM | IC50 (human mOR; [2]): < 300 nM |

| Structure (SMILES) | IC50 (human mOR) | EC50 (human dOR; [1]) | other results |
| --- | --- | --- | --- |
| CNC(=O)c1ccc(C[C@@H](CNC(=O)C[C@H](c2ccccc2)C(C)(C)C)N2CCCC2)cc1F [Compound 157, 4-((S)-3-((S)-4,4-dimethyl-3-phenylpentanamido)-2-(pyrrolidin-1-yl)propyl)-2-fluoro-N-methylbenzamide] | < 300 nM | > 3000 nM | – |
| CNC(=O)c1ccc(C[C@@H](CNC(=O)C[C@@H](c2ccccc2)C(C)(C)C)N(C)C)cc1F [Compound 159, 4-((S)-3-((R)-4,4-dimethyl-3-phenylpentanamido)-2-(dimethylamino)propyl)-2-fluoro-N-methylbenzamide] | < 300 nM | 300 to 3000 nM | – |
| CNC(=O)c1ccc2c(c1)CN(C)[C@H](CNC(=O)C[C@H](c1ccccc1)C(C)(C)C)C2 [Compound 168, (S)-3-(((S)-4,4-dimethyl-3-phenylpentanamido)methyl)-N,2-dimethyl-1,2,3,4-tetrahydroisoquinoline-7-carboxamide] | 300 to 3000 nM | > 3000 nM | – |
| CN(C)[C@H](CNC(=O)C[C@@H](c1ccccc1)C(C)(C)C)Cc1ccc(C(N)=O)cc1 [Compound 95, 4-((S)-3-((R)-4,4-dimethyl-3-phenylpentanamido)-2-(dimethylamino)propyl)benzamide] | – | > 3000 nM | – |
| CNC(=O)c1cc(F)c(C[C@@H](CNC(=O)C[C@H](c2ccccc2)C(C)(C)C)N(C)C)cc1F [Compound 104, 4-((S)-3-((S)-4,4-dimethyl-3-phenylpentanamido)-2-(dimethylamino)propyl)-2,5-difluoro-N-methylbenzamide] | < 300 nM | 300 to 3000 nM | – |
| CNC(=O)c1ccc(C[C@@H](CNC(=O)C[C@@H](C)c2ccc(Cl)cc2)N(C)C)cc1F [Compound 155, 4-((S)-3-((R)-3-(4-chlorophenyl)butanamido)-2-(dimethylamino)propyl)-2-fluoro-N-methylbenzamide] | – | < 300 nM | IC50 (human mOR; [2]): < 300 nM |
| CN(C)[C@H](CNC(=O)C[C@H](CC1CC1)c1ccncc1)Cc1ccc(C(N)=O)c(F)c1 [Compound 62, 4-((S)-3-((S)-4-cyclopropyl-3-(pyridin-4-yl)butanamido)-2-(dimethylamino)propyl)-2-fluorobenzamide] | < 300 nM | – | – |
| CN(C)[C@H](CNC(=O)CC(c1cncnc1)C1(C(F)(F)F)CC1)Cc1ccc(C(N)=O)cc1Cl (stereo partly drawn) [Compound 30, 3-chloro-4-[(2S)-2-(dimethylamino)-3-[3-(pyrimidin-5-yl)-3-[1-(trifluoromethyl)cyclopropyl]propanamido]propyl]benzamide] | < 300 nM | – | – |
| CN[C@H](CNC(=O)C[C@@H](c1ccccc1)C1(C(F)(F)F)CC1)Cc1ccc(C(N)=O)cc1 [Compound 82, 4-((S)-2-(methylamino)-3-((S)-3-phenyl-3-(1-(trifluoromethyl)cyclopropyl)propanamido)propyl)benzamide] | > 3000 nM | – | – |
| CNC(=O)c1ccc(C[C@@H](CNC(=O)C[C@H](c2ccc(C)nc2)C2(C(F)(F)F)CC2)N(C)C)c(C)c1 [Compound 132, 4-((S)-2-(dimethylamino)-3-((R)-3-(6-methylpyridin-3-yl)-3-(1-(trifluoromethyl)cyclopropyl)propanamido)propyl)-N,3-dimethylbenzamide] | < 300 nM | – | – |
| CN(C)[C@H](CNC(=O)C[C@H](c1cncs1)C1(C(F)(F)F)CC1)Cc1ccc(O)cc1 [Compound 296, (S)-N-((S)-2-(dimethylamino)-3-(4-hydroxyphenyl)propyl)-3-(thiazol-5-yl)-3-(1-(trifluoromethyl)cyclopropyl)propanamide] | < 300 nM | – | – |
| CNC(=O)c1ccc(C[C@@H](CNC(=O)C[C@@H](c2ccccc2)C2(C(F)(F)F)CC2)N(C)C)cc1F [Compound 154, 4-((S)-2-(dimethylamino)-3-((S)-3-phenyl-3-(1-(trifluoromethyl)cyclopropyl)propanamido)propyl)-2-fluoro-N-methylbenzamide] | < 300 nM | – | – |
| CNC(=O)c1ccc(C[C@@H](CNC(=O)C[C@@H](CC(C)C)c2ccccn2)N(C)C)c(C)c1 [Compound 140, 4-((S)-2-(dimethylamino)-3-((R)-5-methyl-3-(pyridin-2-yl)hexanamido)propyl)-N,3-dimethylbenzamide] | > 3000 nM | – | – |
| CN(C)[C@H](CNC(=O)C[C@H](c1ccncc1)C1(C(F)(F)F)CC1)Cc1ccc2[nH]ncc2c1 [Compound 209] | < 300 nM | – | – |
| Cc1cc(O)cc(C)c1C[C@@H](CNC(=O)C[C@H](c1cccnc1)C1(C(F)(F)F)CC1)N(C)C [Compound 242, (R)-N-((S)-2-(dimethylamino)-3-(4-hydroxy-2,6-dimethylphenyl)propyl)-3-(pyridin-3-yl)-3-(1-(trifluoromethyl)cyclopropyl)propanamide] | < 300 nM | – | – |
| CN(C)[C@H](CNC(=O)C[C@H](c1cccnc1)C1(C(F)(F)F)CC1)Cc1ccc(O)cc1Cl [Compound 262, (R)-N-((S)-3-(2-chloro-4-hydroxyphenyl)-2-(dimethylamino)propyl)-3-(pyridin-3-yl)-3-(1-(trifluoromethyl)cyclopropyl)propanamide] | < 300 nM | – | – |
